Data on 15 compounds can be found in patent publication US20260232670A1, “TYRO3 SELECTIVE INHIBITORS AND USES THEREOF” (THE UNIVERSITY OF NORTH CAROLINA AT CHAPEL HILL, priority 2023, published 2026).

Type in all cases: biochemical
In one experiment the target is T1, TYRO3 (Homo sapiens, UniProt Q06418).
T1 sequence (Q06418 41-890): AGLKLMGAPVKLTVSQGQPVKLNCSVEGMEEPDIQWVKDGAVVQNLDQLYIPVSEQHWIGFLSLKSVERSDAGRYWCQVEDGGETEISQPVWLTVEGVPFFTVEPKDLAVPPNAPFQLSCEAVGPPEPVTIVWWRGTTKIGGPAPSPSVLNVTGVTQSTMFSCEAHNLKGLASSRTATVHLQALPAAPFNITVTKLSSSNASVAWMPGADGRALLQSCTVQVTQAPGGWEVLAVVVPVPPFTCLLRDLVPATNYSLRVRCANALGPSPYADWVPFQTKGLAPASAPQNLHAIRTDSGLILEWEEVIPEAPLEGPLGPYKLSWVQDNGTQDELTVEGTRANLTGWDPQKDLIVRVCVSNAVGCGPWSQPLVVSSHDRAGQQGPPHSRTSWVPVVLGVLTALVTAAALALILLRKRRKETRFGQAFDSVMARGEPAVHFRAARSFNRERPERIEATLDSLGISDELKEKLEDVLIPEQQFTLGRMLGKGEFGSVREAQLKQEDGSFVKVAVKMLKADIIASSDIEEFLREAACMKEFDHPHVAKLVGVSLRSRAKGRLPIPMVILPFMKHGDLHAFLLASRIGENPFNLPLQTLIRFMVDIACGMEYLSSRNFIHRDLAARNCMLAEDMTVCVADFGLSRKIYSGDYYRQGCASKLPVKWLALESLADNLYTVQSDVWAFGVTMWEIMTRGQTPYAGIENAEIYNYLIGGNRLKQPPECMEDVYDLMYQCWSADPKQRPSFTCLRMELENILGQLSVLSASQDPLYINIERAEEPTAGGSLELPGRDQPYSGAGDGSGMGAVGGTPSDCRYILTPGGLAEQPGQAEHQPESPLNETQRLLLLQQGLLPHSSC
In words: Microfluidic capillary electrophoresis (MCE) kinase activity assay, Tyro3.

The target of the next experiment is T2, AXL (Homo sapiens, UniProt P30530).
T2 sequence (P30530 26-894): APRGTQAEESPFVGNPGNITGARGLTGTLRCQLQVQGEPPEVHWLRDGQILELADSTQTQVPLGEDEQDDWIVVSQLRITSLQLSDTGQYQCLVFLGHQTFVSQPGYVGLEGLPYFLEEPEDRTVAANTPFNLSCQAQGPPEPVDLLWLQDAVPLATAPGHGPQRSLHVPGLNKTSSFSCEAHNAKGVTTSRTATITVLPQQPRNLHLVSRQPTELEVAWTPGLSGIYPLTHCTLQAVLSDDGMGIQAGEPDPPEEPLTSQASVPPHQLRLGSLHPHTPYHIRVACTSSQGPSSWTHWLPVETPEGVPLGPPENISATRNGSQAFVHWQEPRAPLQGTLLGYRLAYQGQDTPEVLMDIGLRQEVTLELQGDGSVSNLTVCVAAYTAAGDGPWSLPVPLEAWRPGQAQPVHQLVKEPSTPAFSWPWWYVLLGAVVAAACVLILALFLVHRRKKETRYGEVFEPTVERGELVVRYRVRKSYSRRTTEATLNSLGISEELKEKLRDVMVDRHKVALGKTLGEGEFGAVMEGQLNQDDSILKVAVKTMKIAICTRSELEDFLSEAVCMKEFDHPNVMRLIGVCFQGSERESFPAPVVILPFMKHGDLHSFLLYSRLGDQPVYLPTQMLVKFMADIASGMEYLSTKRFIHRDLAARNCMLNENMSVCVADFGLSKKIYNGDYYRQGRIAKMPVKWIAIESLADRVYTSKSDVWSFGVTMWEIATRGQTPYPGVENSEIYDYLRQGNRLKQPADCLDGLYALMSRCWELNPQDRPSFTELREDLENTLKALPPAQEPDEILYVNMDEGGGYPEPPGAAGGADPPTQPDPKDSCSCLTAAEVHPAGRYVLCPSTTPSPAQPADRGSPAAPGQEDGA
In words: Microfluidic capillary electrophoresis (MCE) kinase activity assay, Axl.

The target of the next experiment is T3, MERTK (Homo sapiens, UniProt Q12866).
T3 sequence (Q12866 21-999): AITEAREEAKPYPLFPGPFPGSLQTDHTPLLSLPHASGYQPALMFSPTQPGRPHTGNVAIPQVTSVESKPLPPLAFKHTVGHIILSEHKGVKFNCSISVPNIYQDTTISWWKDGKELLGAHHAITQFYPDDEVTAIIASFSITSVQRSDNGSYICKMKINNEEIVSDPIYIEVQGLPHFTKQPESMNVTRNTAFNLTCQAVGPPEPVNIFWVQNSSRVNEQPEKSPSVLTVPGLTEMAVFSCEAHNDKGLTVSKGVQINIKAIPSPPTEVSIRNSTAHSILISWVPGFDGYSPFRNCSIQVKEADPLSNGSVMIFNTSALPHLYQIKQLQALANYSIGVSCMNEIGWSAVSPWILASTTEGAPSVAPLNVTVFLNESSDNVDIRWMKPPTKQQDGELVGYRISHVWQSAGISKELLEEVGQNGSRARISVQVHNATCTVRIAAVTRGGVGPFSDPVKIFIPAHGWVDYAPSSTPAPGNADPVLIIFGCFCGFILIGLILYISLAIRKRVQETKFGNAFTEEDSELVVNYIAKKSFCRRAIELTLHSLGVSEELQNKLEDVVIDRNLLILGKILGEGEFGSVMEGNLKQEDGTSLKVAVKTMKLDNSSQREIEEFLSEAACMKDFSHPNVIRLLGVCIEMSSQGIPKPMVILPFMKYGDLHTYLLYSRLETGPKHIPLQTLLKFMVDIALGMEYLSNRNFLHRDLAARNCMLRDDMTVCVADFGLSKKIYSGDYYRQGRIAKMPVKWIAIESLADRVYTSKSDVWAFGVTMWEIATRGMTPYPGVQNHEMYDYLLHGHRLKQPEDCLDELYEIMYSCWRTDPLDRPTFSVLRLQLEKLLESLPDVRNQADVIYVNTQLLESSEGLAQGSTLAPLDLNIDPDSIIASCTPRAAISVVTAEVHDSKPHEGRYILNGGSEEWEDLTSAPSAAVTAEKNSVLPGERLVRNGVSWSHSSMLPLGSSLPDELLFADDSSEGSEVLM
In words: Microfluidic capillary electrophoresis (MCE) kinase activity assay, Mer.

Description for AXL: (§1) All reactions were terminated by addition of 20 μL of 70 mM EDTA. After a 180 min incubation, phosphorylated and unphosphorylated substrate peptides (Table 6) were separated in buffer supplemented with 1× CR-8 on a LabChip EZ Reader equipped with a 12-sipper chip. Data were analyzed using EZ Reader software.
Description for MERTK: as §1
Description for TYRO3: as §1

As to `CN1CCC(Oc2ccc(-c3cn([C@H]4CC[C@H](O)CC4)c4nc(Nc5cc(C(F)(F)F)cc(C(F)(F)F)c5)ncc34)cc2)CC1` [Compound 150, trans-4-(2-((3,5-bis(trifluoromethyl)phenyl)amino)-5-(4-((1-methylpiperidin-4-yl)oxy)phenyl)-7H-pyrrolo[2,3-d]pyrimidin-7-yl)cyclohexan-1-ol], the IC50 lay within 10 to 100 nM against TYRO3 (Table 7), 1000 to 30000 nM at AXL (Table 7) and 1000 to 30000 nM against MERTK (Table 7).

Consider `CN1CCN(Cc2ccc(-c3cn([C@H]4CC[C@H](O)CC4)c4nc(Nc5cc(Cl)c(F)c(Cl)c5)ncc34)cc2)CC1` [Compound 8], for which the IC50 on TYRO3 (Table 2, MCE assay, ATP at Km) is below 10 nM; on AXL (Table 2, MCE assay, ATP at Km), 10 to 100 nM; at MERTK (Table 2, MCE assay, ATP at Km) it was 10 to 100 nM.

As to `O[C@H]1CC[C@H](n2cc(-c3ccc(CN4CCC(F)(F)CC4)cc3)c3cnc(Nc4cc(C(F)(F)F)cc(C(F)(F)F)c4)nc32)CC1` [Compound 10], the IC50 is 10 to 100 nM on TYRO3 (Table 2, MCE assay, ATP at Km); 100 to 1000 nM against AXL (Table 2, MCE assay, ATP at Km); 100 to 1000 nM against MERTK (Table 2, MCE assay, ATP at Km).

Turning to `CN1CCN(Cc2ccc(-c3cn([C@H]4CC[C@@H](O)CC4)c4nc(Nc5cc(F)cc(Cl)c5)ncc34)cc2)CC1` [Compound 39], the IC50 on TYRO3 (Table 3, MCE assay, ATP at Km) was below 10 nM; against AXL (Table 3, MCE assay, ATP at Km), 10 to 100 nM; against MERTK (Table 3, MCE assay, ATP at Km), below 10 nM.

Regarding `CN1CCC(Oc2ccc(-c3cn([C@H]4CC[C@H](O)CC4)c4nc(Nc5cc(F)cc(Cl)c5)ncc34)cc2)CC1` [Compound 60], the IC50 against TYRO3 (Table 7) was below 10 nM; on AXL (Table 7) it was 10 to 100 nM; on MERTK (Table 7), below 10 nM.

With `CC(C)(C)OC(=O)N1CCN(Cc2ccc(-c3cn([C@H]4CC[C@H](O)CC4)c4nc(Nc5cc(F)cc(Cl)c5)ncc34)cc2)CC1` [Compound 28], the IC50 against TYRO3 (Table 2, MCE assay, ATP at Km) is below 10 nM; at AXL (Table 2, MCE assay, ATP at Km), 100 to 1000 nM; against MERTK (Table 2, MCE assay, ATP at Km), 100 to 1000 nM.

Turning to `CCN1CCN(Cc2ccc(-c3cn([C@H]4CC[C@H](O)CC4)c4nc(Nc5cc(F)cc(Cl)c5)ncc34)cc2)CC1` [Compound 30], the IC50 on TYRO3 (Table 2, MCE assay, ATP at Km) was below 10 nM; at AXL (Table 2, MCE assay, ATP at Km) it was 10 to 100 nM; against MERTK (Table 2, MCE assay, ATP at Km), below 10 nM.

As for `O[C@H]1CC[C@H](n2cc(-c3ccc(CNCCN4CCOCC4)cc3)c3cnc(Nc4cc(C(F)(F)F)cc(C(F)(F)F)c4)nc32)CC1` [Compound 19], the IC50 at TYRO3 (Table 2, MCE assay, ATP at Km) is below 10 nM; on AXL (Table 2, MCE assay, ATP at Km) it was 100 to 1000 nM; against MERTK (Table 2, MCE assay, ATP at Km), 100 to 1000 nM.

Consider `O[C@H]1CC[C@H](n2cc(-c3ccc(CN4CCNCC4)cc3)c3cnc(Nc4cc(C(F)(F)F)cc(C(F)(F)F)c4)nc32)CC1` [Compound 27], for which the IC50 is below 10 nM at TYRO3 (Table 2, MCE assay, ATP at Km); 100 to 1000 nM at AXL (Table 2, MCE assay, ATP at Km); 100 to 1000 nM against MERTK (Table 2, MCE assay, ATP at Km).

As for `O[C@H]1CC[C@H](n2cc(-c3ccc(CN4CCC(F)(F)CC4)cc3)c3cnc(Nc4cc(F)cc(Cl)c4)nc32)CC1` [Compound 23], the IC50 against TYRO3 (Table 2, MCE assay, ATP at Km) is below 10 nM; at AXL (Table 2, MCE assay, ATP at Km), 100 to 1000 nM; at MERTK (Table 2, MCE assay, ATP at Km) it was 10 to 100 nM.

On to `CN(C)C1CCN(Cc2ccc(-c3cn([C@H]4CC[C@H](O)CC4)c4nc(Nc5cc(F)cc(Cl)c5)ncc34)cc2)CC1` [Compound 22], for which the IC50 was below 10 nM against TYRO3 (Table 2, MCE assay, ATP at Km); 10 to 100 nM against AXL (Table 2, MCE assay, ATP at Km); below 10 nM at MERTK (Table 2, MCE assay, ATP at Km).

Take `CN1CCN(C(=O)c2ccc(-c3cn([C@H]4CC[C@H](O)CC4)c4nc(Nc5cc(F)cc(Cl)c5)ncc34)cc2)CC1` [Compound 156]: the figures for the IC50 against TYRO3 (Table 9), against AXL (Table 9) and against MERTK (Table 9) were below 10 nM, 10 to 100 nM and below 10 nM, respectively.

In the case of `O[C@H]1CC[C@H](n2cc(-c3ccc(CN4CCNCC4)cc3)c3cnc(Nc4cc(F)cc(Cl)c4)nc32)CC1` [Compound 29], the IC50 against TYRO3 (Table 2, MCE assay, ATP at Km) is below 10 nM; against AXL (Table 2, MCE assay, ATP at Km), 10 to 100 nM; at MERTK (Table 2, MCE assay, ATP at Km) it was below 10 nM.

In the case of `O[C@H]1CC[C@H](n2cc(-c3ccc(CN4CCSCC4)cc3)c3cnc(Nc4cc(F)cc(Cl)c4)nc32)CC1` [Compound 25], the IC50 was below 10 nM against TYRO3 (Table 2, MCE assay, ATP at Km); 100 to 1000 nM against AXL (Table 2, MCE assay, ATP at Km); 100 to 1000 nM at MERTK (Table 2, MCE assay, ATP at Km).

With `CC(C)(C)OC(=O)N1CCN(Cc2ccc(-c3cn([C@H]4CC[C@H](O)CC4)c4nc(Nc5cc(C(F)(F)F)cc(C(F)(F)F)c5)ncc34)cc2)CC1` [Compound 26], the IC50 on TYRO3 (Table 2, MCE assay, ATP at Km) is 10 to 100 nM; on AXL (Table 2, MCE assay, ATP at Km), 1000 to 30000 nM; against MERTK (Table 2, MCE assay, ATP at Km), 1000 to 30000 nM.
